Results: US10988482B2, “IRAK4 inhibitor and use thereof” (BEIJING HANMI PHARMACEUTICAL CO., LTD., priority 2015, dated 2021)

Legend:
[1] = biological target: IRAK4 kinase (Homo sapiens (Human), UniProt Q9NWZ3); experiment: IRAK4 kinase activity inhibition assay (ADP-Glo); type: biochemical; conditions: 10 μM ATP, MBP substrate, 60 min at 25° C.
Procedure: IRAK4 kinase (purchased from Life Technologies, Cat. No.: PR5612U) was diluted to 2 folds of the final concentration (the final concentration is 0.76 ng/μL) with reaction buffer (40 mM Tris-HCl, pH 7.5; 20 mM MgCl2; 0.1 mg/mL BSA; 1 mM DTT), and added to a 384-well plate at 5 μL/well. The test drugs were 10-fold serial diluted from 10 μM to set six concentration points and added to the test wells of the 384-well plate at 2.5 μL/well. After incubation for 10 min at 25° C., 10 μM of ATP and […] of an enzyme reaction substrate, myelin basic protein MBP (purchased from SignalChem, Cat. No.: M42-51N) were added at 2.5 µL/well, and reacted at 25° C. for 60 minutes. After the reaction was completed, the kinase activity assay was performed using the ADP-Glo™ kinase assay kit (purchased from Promega, Cat. No.: V9102) according to the manufacture's instruction, i.e., 10 μL of ADP-Glo reaction reagent was first added and reacted at 25° C. for 40 minutes, 10 μL of the solution to be tested was taken and mixed with 10 μL of ADP-Glo detection reagent, and reacted at 25° C. for 30 minutes. The kinase activity was then detected, and the IC50 values of the test drugs were calculated.

[2] = system: TNF-α secretion in THP-1 cells; experiment: LPS-induced TNF-α secretion assay in THP-1 cells (ELISA); type: cell-based; conditions: Homo sapiens; LPS-induced TNF-α secretion in THP-1 cells, 2 hours pre-incubation, 24 hours LPS
Procedure: The compounds of Examples 9, 98 and 105 of the invention were tested in LPS-induced TNF-α secretion assay in THP-1 cells. Human THP-1 cells (purchased from ATCC, Cat. No.: TIB-202) were cultured in RPMI-1640 medium (purchased from Gibco, Cat. No.: 22440) containing 10% fetal bovine serum (purchased from Gibco, Cat. No.: 10099-141) and 0.05 mM of 2-mercaptoethanol (purchased from Gibco, Cat. No.: 21985). The THP-1 cells in logarithmic growth phase were seeded in a 96-well plate at 2×10^5 cells/well/100 μL. The test samples were diluted with RMPI-1640 medium to 4 folds of the final concentration (5-fold dilutions starting from 10 μM, setting 6 drug concentrations, and testing in replicate wells at each concentration). The diluted test samples were added to the test wells seeded with cells at 50 μL/well, and RMPI-1640 medium (50 μL) was separately added to positive control and negative control wells. The 96-well plate was placed in the incubator at 37° C., 5% CO2 and pre-incubated for 2 hours. The 96-well plate was taken out, and 400 ng/mL of LPS (50 μL) (purchased from Sigma, Cat. No.: L6529-1MG) was added to each well of the test wells and the positive control wells, and RMPI-1640 medium (50 μL) was added to the negative control wells. After incubation in the incubator at 37° C., 5% CO2 for 24 hours, the cell culture supernatant was taken and determined for the content of TNF-α in the supernatant using a human TNF-α ELISA kit (purchased from DKW, Cat. No.: 12-1720-096).

[3] = system: TMD-8 cells; experiment: TMD-8 cell growth inhibition assay (CCK-8); type: cell-based; conditions: Homo sapiens, TMD8, 96 hours
Procedure: The compounds of Examples 9, 98 and 105 of the invention were tested in TMD-8 cell growth inhibition assay. TMD-8 cells (available from Korea Hanmi Research Center) were cultured in RMPI-1640 medium (purchased from Gibco, Cat. No.: 22440) containing 10% fetal bovine serum (purchased from Gibco, Cat. No.: 10099-141). The TMD-8 cells in logarithmic growth phase were seeded in a 96-well plate at 20,000 cells/well/100 μL, and RMPI-1640 medium (100 μL) was added into blank control wells. The test samples were diluted with RMPI-1640 medium to 2 folds of the final concentration (10-fold dilutions starting from 10 μM, setting 6 drug concentrations, and testing in replicate wells at each concentration). The diluted test samples were added to test wells seeded with cells at 100 μL/well, and RMPI-1640 medium (100 μL) was separately added to the positive control wells and the blank control wells. The 96-well plate was placed in the incubator and reacted at 37° C., 5% CO2 for 96 hours. After the reaction was completed, the 96-well plate was taken from the incubator and to each well was added CCK-8 (100 μL) (purchased from DOJINDO, Cat. No.: CK04-11). Then the 96-well plate was put back to the incubator and incubated for another 2 hours. The light absorbance was measured at 450 nm, and the IC50 values were calculated therefrom.

Sequence of IRAK4 kinase (Q9NWZ3 whole entry): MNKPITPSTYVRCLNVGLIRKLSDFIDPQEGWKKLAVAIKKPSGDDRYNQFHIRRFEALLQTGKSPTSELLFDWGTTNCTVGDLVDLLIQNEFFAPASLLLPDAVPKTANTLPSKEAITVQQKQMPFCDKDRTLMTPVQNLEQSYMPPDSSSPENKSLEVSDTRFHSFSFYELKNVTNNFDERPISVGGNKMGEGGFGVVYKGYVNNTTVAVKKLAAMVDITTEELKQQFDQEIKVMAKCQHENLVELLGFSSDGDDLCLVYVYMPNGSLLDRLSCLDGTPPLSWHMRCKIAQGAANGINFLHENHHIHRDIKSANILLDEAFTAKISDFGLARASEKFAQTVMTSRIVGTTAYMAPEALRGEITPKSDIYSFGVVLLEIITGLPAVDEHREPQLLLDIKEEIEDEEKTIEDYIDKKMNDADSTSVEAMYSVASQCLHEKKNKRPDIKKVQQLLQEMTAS

Cc1cc(Nc2nc(N[C@H]3CC[C@](C)(O)CC3)c3sccc3n2)sn1 [Compound 9]
IC50 [1]: ≤ 100 nM | IC50 [2]: ≤ 500 nM | IC50 [3]: ≤ 500 nM

COCCCn1ccc2nc(Nc3cc(C)ns3)nc(N[C@H]3CC[C@H](N4CCCCC4)CC3)c21 [Compound 105, 5-(3-methoxylpropyl)-N^4-(trans-4-(piperidin-1-yl)cyclohexyl)-N^2-(3-methylisothiazol-5-yl)-5H-pyrrolo[3,2-d]pyrimidine-2,4-diamine]
IC50 [1]: ≤ 100 nM | IC50 [2]: ≤ 500 nM | IC50 [3]: ≤ 500 nM

Cn1cc(Nc2nc(N[C@H]3CC[C@H](O)CC3)c3sccc3n2)cn1 [Compound 18]
IC50 [1]: ≤ 100 nM

Cc1ncccc1-n1cc(Nc2nc(N[C@H]3CC[C@H](O)CC3)c3sccc3n2)cn1 [Compound 41]
IC50 [1]: 1000 to 10000 nM

Cc1cncc(-n2cc(Nc3nc(N[C@H]4CC[C@H](O)CC4)c4sccc4n3)cn2)c1 [Compound 42]
IC50 [1]: 100 to 1000 nM

Cc1cc(Nc2nc(O[C@H]3CC[C@@H](N)C3)c3sccc3n2)sn1 [Compound 81]
IC50 [1]: 100 to 1000 nM

Cc1cc(Nc2nc(O[C@H]3CC[C@H](N4CCCC4)CC3)c3sccc3n2)sn1 [Compound 101]
IC50 [1]: ≤ 100 nM

Cc1cc(Nc2nc(NC3CCC(O)C(C)C3)c3sccc3n2)sn1 (centres unmarked) [Compound 11]
IC50 [1]: 100 to 1000 nM

O[C@H]1CC[C@H](Nc2nc(Nc3cnn(C4CCCC4)c3)nc3ccsc23)CC1 [Compound 27]
IC50 [1]: 100 to 1000 nM

CN[C@H]1CC[C@@H](Nc2nc(Nc3cc(C)ns3)nc3ccsc23)CC1 [Compound 88]
IC50 [1]: 100 to 1000 nM

O[C@H]1CC[C@H](Nc2nc(Nc3cnn(-c4ccccc4)c3)nc3ccsc23)CC1 [Compound 25, trans-4-((2-((1-phenyl-1H-pyrazol-4-yl)amino)thieno[3,2-d]pyrimidin-4-yl)amino)cyclohexanol]
IC50 [1]: ≤ 100 nM

Cc1cc(-n2cc(Nc3nc(N[C@H]4CC[C@H](O)CC4)c4sccc4n3)cn2)ccn1 [Compound 43]
IC50 [1]: 100 to 1000 nM

Cc1cc(Nc2nc(O[C@H]3CC[C@H](N(C)C)CC3)c3sccc3n2)sn1 [Compound 96]
IC50 [1]: ≤ 100 nM

Cc1cc(Nc2nc(N[C@H]3C[C@@](C)(O)C3)c3sccc3n2)sn1 [Compound 3]
IC50 [1]: ≤ 100 nM

Cn1cc(Nc2nc(N[C@H]3CC[C@@H](N)CC3)c3sccc3n2)cn1 [Compound 84]
IC50 [1]: 100 to 1000 nM

Cc1cc(Nc2nc(NC3CCC(CO)CC3)c3sccc3n2)sn1 (centres unmarked) [Compound 10]
IC50 [1]: ≤ 100 nM

Cc1cc(Nc2nc(N[C@H]3CC[C@H](O)CC3)c3sccc3n2)on1 [Compound 17]
IC50 [1]: 100 to 1000 nM

CN[C@H]1C[C@@H](Nc2nc(Nc3cc(C)ns3)nc3ccsc23)C1 [Compound 87]
IC50 [1]: 100 to 1000 nM

Cc1cc(Nc2nc(N(C)C3CCC(C)(O)CC3)c3sccc3n2)sn1 (centres unmarked) [Compound 24, 1-methyl-4-(methyl(2-((3-methylisothiazol-5-yl)amino)thieno[3,2-d]pyrimidin-4-yl)amino)cyclohexanol]
IC50 [1]: 1000 to 10000 nM

CN1CCC(N(C)c2ccc(Nc3nc(N[C@H]4CC[C@H](O)CC4)c4sccc4n3)cc2)CC1 [Compound 70]
IC50 [1]: 100 to 1000 nM

O[C@H]1CC[C@H](Nc2nc(Nc3cnn(-c4cccnc4)c3)nc3ccsc23)CC1 [Compound 37]
IC50 [1]: ≤ 100 nM

C[C@]1(O)CC[C@H](Nc2nc(Nc3cc(C(=O)NC4CCNCC4)ns3)nc3ccsc23)CC1 [Compound 58]
IC50 [1]: ≤ 100 nM

Cc1cc(Nc2nc(N[C@H]3CC[C@H](N4CCOCC4)CC3)c3sccc3n2)sn1 [Compound 100]
IC50 [1]: ≤ 100 nM

Cc1cc(Nc2nc(NC3CCC(C)(O)C3)c3sccc3n2)sn1 (centres unmarked) [Compound 6]
IC50 [1]: 100 to 1000 nM

C[C@]1(O)CC[C@H](Nc2nc(Nc3cnn(C(=O)CC4CCNCC4)c3)nc3ccsc23)CC1 [Compound 44]
IC50 [1]: 100 to 1000 nM

C[C@]1(O)CC[C@H](Nc2nc(Nc3cccc(CC(N)=O)c3)nc3ccsc23)CC1 [Compound 72]
IC50 [1]: 1000 to 10000 nM

Cc1cc(Nc2nc(N[C@H]3CC[C@H](N4CCCCC4)CC3)c3sccc3n2)sn1 [Compound 98, N^4-(trans-4-(piperidin-1-yl)cyclohexyl)-N^2-(3-methylisothiazol-5-yl)thieno[3,2-d]pyrimidine-2,4-diamine]
IC50 [1]: ≤ 100 nM | IC50 [2]: ≤ 500 nM | IC50 [3]: ≤ 500 nM

Cn1cc(Nc2nc(O[C@H]3CC[C@@H](N)C3)c3sccc3n2)cn1 [Compound 85]
IC50 [1]: 100 to 1000 nM

COc1cc(Nc2nc(N[C@@H]3C[C@H](CO)[C@@H](O)[C@H]3O)c3sccc3n2)ccn1 [Compound 20]
IC50 [1]: ≤ 100 nM

CCN(CC)[C@H]1CC[C@@H](Nc2nc(Nc3cc(C)ns3)nc3ccsc23)CC1 [Compound 93]
IC50 [1]: 100 to 1000 nM

C[C@]1(O)CC[C@H](Nc2nc(Nc3cccc(C(=O)NC4CCNCC4)c3)nc3ccsc23)CC1 [Compound 65]
IC50 [1]: 100 to 1000 nM

C[C@]1(O)CC[C@H](Nc2nc(Nc3cc(C(=O)NCCCO)ns3)nc3ccsc23)CC1 [Compound 52]
IC50 [1]: ≤ 100 nM

Cc1cc(Nc2nc(O[C@H]3CC[C@@H](N(C)C)CC3)c3sccc3n2)sn1 [Compound 95]
IC50 [1]: ≤ 100 nM

Cc1cc(Nc2nc(N[C@H]3CC[C@@H](O)CC3)c3sccc3n2)sn1 [Compound 8]
IC50 [1]: ≤ 100 nM

Cc1cc(Nc2nc(N[C@H]3CC[C@@H](O)C3)c3sccc3n2)sn1 [Compound 4]
IC50 [1]: ≤ 100 nM

Cc1cc(Nc2nc(N[C@H]3CC[C@H](O)C3)c3sccc3n2)sn1 [Compound 5]
IC50 [1]: 100 to 1000 nM

O[C@H]1CC[C@H](Nc2nc(Nc3cnoc3)nc3ccsc23)CC1 [Compound 19]
IC50 [1]: 100 to 1000 nM

O[C@H]1CC[C@H](Nc2nc(Nc3cnn(C4CCCNC4)c3)nc3ccsc23)CC1 (some centres unmarked) [Compound 28]
IC50 [1]: ≤ 100 nM

C[C@]1(O)CC[C@H](Nc2nc(Nc3cc(C(=O)Nc4ccncc4)ns3)nc3ccsc23)CC1 [Compound 63]
IC50 [1]: 100 to 1000 nM

CN1CCN(C(=O)c2cc(Nc3nc(N[C@H]4CC[C@H](O)CC4)c4sccc4n3)sn2)CC1 [Compound 45, (5-((4-((trans-4-hydroxycyclohexyl)amino)thieno[3,2-d]pyrimidin-2-yl)amino)isothiazol-3-yl)(4-methylpiperazin-1-yl)methanone]
IC50 [1]: 100 to 1000 nM

Cc1cc(Nc2nc(N[C@H]3CC[C@H](N)CC3)c3sccc3n2)sn1 [Compound 80]
IC50 [1]: 100 to 1000 nM
